The source of these data is ChEMBL document CHEMBL4619704, “Structural determinants of affinity and selectivity in the binding of inhibitors to histone deacetylase 6” (Bioorg Med Chem Lett, 2020).

The target of test [1] is T1, Protein deacetylase HDAC6 (Homo sapiens, UniProt Q9UBN7).
T1 sequence (Q9UBN7 whole entry): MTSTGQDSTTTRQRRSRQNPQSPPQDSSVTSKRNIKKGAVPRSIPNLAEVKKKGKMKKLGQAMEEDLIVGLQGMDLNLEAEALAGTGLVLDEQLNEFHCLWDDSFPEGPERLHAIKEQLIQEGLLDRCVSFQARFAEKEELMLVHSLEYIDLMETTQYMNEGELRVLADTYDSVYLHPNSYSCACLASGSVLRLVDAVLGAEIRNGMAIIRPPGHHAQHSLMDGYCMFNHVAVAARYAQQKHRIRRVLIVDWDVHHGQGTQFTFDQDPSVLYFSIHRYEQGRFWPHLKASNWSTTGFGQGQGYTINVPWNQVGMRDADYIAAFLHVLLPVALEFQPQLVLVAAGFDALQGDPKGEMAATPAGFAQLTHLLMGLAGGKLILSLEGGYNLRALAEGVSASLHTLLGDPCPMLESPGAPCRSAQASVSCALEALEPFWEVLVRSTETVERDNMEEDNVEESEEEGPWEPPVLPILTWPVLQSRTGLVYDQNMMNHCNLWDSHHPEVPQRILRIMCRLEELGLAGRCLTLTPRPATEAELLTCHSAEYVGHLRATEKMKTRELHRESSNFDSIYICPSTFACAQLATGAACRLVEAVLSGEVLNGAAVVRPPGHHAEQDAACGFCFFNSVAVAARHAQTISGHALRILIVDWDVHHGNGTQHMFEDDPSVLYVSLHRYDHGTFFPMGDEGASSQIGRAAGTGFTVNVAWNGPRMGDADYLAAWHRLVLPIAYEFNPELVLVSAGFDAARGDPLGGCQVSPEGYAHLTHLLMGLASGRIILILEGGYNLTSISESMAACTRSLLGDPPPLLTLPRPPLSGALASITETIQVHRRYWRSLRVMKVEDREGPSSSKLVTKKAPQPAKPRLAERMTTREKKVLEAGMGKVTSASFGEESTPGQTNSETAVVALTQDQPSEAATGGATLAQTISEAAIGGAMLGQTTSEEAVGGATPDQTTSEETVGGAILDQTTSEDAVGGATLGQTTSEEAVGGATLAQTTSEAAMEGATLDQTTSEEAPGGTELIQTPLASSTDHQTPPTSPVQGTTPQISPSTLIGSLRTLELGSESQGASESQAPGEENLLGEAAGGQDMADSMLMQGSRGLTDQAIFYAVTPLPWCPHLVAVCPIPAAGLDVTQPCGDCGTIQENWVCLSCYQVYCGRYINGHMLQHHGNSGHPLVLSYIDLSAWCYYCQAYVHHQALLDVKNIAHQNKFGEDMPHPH
The experiment in a line: Inhibition of HDAC6 (unknown origin) using acetyl-lysine tripeptide as substrate preincubated for 24 hrs followed by substrate addition and measured after 30 mins by microtiter plate reader analysis.

The target of test [2] is T2, Histone deacetylase 1 (Homo sapiens, UniProt Q13547). In words: Inhibition of HDAC1 (unknown origin).
T2 sequence (Q13547 whole entry): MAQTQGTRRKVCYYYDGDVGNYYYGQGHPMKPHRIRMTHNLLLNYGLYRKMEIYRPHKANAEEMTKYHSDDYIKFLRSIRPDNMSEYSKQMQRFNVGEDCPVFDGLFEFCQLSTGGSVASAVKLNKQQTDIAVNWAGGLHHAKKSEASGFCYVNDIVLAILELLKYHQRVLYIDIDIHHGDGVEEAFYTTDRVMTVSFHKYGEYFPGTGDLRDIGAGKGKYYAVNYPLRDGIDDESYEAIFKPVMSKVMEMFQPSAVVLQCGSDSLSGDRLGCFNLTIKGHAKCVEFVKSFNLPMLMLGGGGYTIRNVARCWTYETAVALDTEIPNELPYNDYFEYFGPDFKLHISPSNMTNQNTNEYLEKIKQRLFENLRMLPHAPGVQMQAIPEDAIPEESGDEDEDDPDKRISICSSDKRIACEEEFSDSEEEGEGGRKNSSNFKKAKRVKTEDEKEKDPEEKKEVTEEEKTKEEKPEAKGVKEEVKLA
The target of test [3] is T2, Histone deacetylase 1. In words: Inhibition of C-terminal Flag-tagged HDAC1 (unknown origin) expressed in HEK293 cells or Sf21 cells using Ac-RHK(Ac)K(Ac)-AMC peptide as substrate measured after 180 mins by fluorescence based assay.
The target in test [4] is T2, Histone deacetylase 1. The experiment in a line: Inhibition of C-terminal Flag-tagged HDAC1 (unknown origin) expressed in HEK293 cells or Sf21 cells using Ac-NH-GGK(Ac)-AMC peptide as substrate measured after 180 mins by fluorescence based assay.
Test [5] deals with T1, Protein deacetylase HDAC6. In words: Inhibition of human HDAC6 (unknown origin).

The IC50 is the concentration that gives 50% inhibition.

As for `O=C(NO)c1cnc(NC2(c3ccccc3)CCC(F)(F)CC2)nc1`, the IC50 in test [1] came to 3 nM; against Histone deacetylase 1 [2] it was 780 nM.
`CN(C)Cc1ccc(S(=O)(=O)n2ccc(/C=C/C(=O)NO)c2)cc1` [RESMINOSTAT]: the half-inhibitory concentration (IC50) came out at 877 nM against Histone deacetylase 1 [3] and 43 nM at Histone deacetylase 1 [4].
For `NCCCNCCCCCC(=O)C(F)(F)F`, in test [5], the IC50 is 1400 nM. This lies in the single-digit micromolar range.
